In PMC6213309, “Antibacterial Activity and Mechanism of Action of Bovine Lactoferricin Derivatives with Symmetrical Amino Acid Sequences” (International Journal of Molecular Sciences, 2018):
Where two headings read alike, the source gives them in different places. Ends that are not written are not given here.

How the values were obtained:
[1] = system: E. coli ATCC 25922; format: cell-based
Protocol: (§2) The antimicrobial activity of the peptides were defined as the minimum inhibitory concentrations (MIC) according to the Clinical and Laboratory Standards Institute broth microdilution method as described previously [47]. Briefly, 50 μL two-fold serial dilutions of peptides (with final concentrations ranging from 0 μM to 256 μM) and 50 μL bacterial fluids diluted with MHB were added to 96-well microtiter plates. The plates were then incubated at 37 °C for 18 h.

[2] = system: E. coli UB 1005; format: cell-based
Protocol: as §2

[3] = system: Salmonella typhimurium C 7731; format: cell-based
Protocol: as §2

[4] = system: Salmonella typhimurium ATCC 14028; format: cell-based
Protocol: as §2

[5] = system: Salmonella pullorum C 7913; format: cell-based; conditions: 18 h
[6] = system: Salmonella enterica subsp. CMCC 50071; conditions: MHB, 37 °C, 18 h, peptides 0-256 μM, triplicate samples
Protocol: (§1) The antimicrobial activity of the peptides were defined as the minimum inhibitory concentrations (MIC) according to the Clinical and Laboratory Standards Institute broth microdilution method as described previously. Briefly, 50 μL two-fold serial dilutions of peptides (with final concentrations ranging from 0 μM to 256 μM) and 50 μL bacterial fluids diluted with MHB were added to 96-well microtiter plates. The plates were then incubated at 37 °C for 18 h.

[7] = system: S. aureus ATCC 29213; format: cell-based
[8] = system: S. aureus ATCC 25923; format: cell-based
[9] = system: S. epidermidis ATCC 12228; format: cell-based
Protocol: as §2

[10] = system: human red blood cells (hRBCs); assay: Hemolytic activity; format: cell-based; conditions: lowest concentration causing 5% hemolysis of hRBCs; 1% hRBCs in PBS pH 7.2, 37 °C, 1 h, absorbance 570 nm
Protocol: Hemolytic activity against human red blood cells (hRBCs) was determined as described before. Briefly, 1 mL of fresh hRBCs was centrifuged in PBS (pH 7.2). After washing two times, the hRBCs were resuspended with PBS at a concentration of 1%. Next, 50 μL of the hRBCs solution was added to 50 μL PBS containing two-fold serial dilutions of peptides in each well. The plates were then incubated at 37 °C for 1 h and centrifuged at 1000× g for 5 min. The supernatants were removed, and the release of hemoglobin was determined by measuring the absorbance at 570 nm using a microplate reader (Bio-Rad, Hercules CA, USA). Erythrocyte suspensions in PBS and 0.1% Triton X-100 were used as negative and positive controls, respectively. Melittin was the control peptide.

[11] = system: E. coli ATCC25922; conditions: for MIC after Trypsin: peptide treated with 1 mg/mL trypsin
Protocol: as §1
We assessed the salt stability, thermal stability, and enzymatic stability of the AMPs. Briefly, E. coli ATCC25922 was selected as the test bacterium. The control group was untreated peptides. Different concentrations of salts (150 mM NaCl, 4.5 mM KCl, 6 μM NH4Cl, 1 mM MgCl2, […], 8 mM […], 2.5 mM CaCl2, and 4 mM FeCl3) were added to the incubation buffer to examine the effect of each salt on the antimicrobial activities of the peptides. AMPs were treated for 1 h at 100 °C to test the thermal stability. AMPs were also treated with trypsin, pepsin, papain, and protease K at a concentration of 1 mg/mL for 1 h at 37 °C to test enzyme stability.

[12] = Salmonella typhimurium C 7731, MHB, 37 °C, 18 h, peptides 0-256 μM, triplicate samples
[13] = Salmonella typhimurium ATCC 14028, MHB, 37 °C, 18 h, peptides 0-256 μM, triplicate samples
[14] = Salmonella pullorum C 7913, MHB, 37 °C, peptides 0-256 μM, triplicate samples
[15] = S. aureus ATCC 29213, MHB, 37 °C, 18 h, peptides 0-256 μM, triplicate samples
[16] = S. aureus ATCC 25923, MHB, 37 °C, 18 h, peptides 0-256 μM, triplicate samples
[17] = S. epidermidis ATCC 12228, MHB, 37 °C, 18 h, peptides 0-256 μM, triplicate samples
[18] = E. coli ATCC25922, peptide treated 1 h at 100 °C
[19] = E. coli ATCC25922, peptide treated with 1 mg/mL papain, 1 h, 37 °C
[20] = E. coli ATCC25922, peptide treated with 1 mg/mL pepsin, 1 h, 37 °C
[21] = E. coli ATCC25922, peptide treated with 1 mg/mL protease K, 1 h, 37 °C
[22] = E. coli ATCC25922, untreated peptides

KCRRWQWRMKK-NH2 [LFcinB18–28, reference compound]
MIC ([1]; E. coli ATCC 25922, MHB, 37 °C, 18 h, peptides 0-256 μM, triplicate samples): 16 µM
MIC ([2]; E. coli UB 1005, MHB, 37 °C, 18 h, peptides 0-256 μM, triplicate samples): 128 µM
MIC [3, 12]: >128 µM
MIC [4, 13]: >128 µM
MIC [5, 14]: >128 µM
MIC [6]: >128 µM
MIC [7, 15]: >128 µM
MIC [8, 16]: 128 µM
MIC [9, 17]: >128 µM
MHC (minimum hemolytic concentration) [10]: >256 µM
MIC in the presence of NH4+ ([11]; E. coli ATCC25922, 6 μM NH4Cl): 8 µM
MIC in the presence of Mg2+ ([11]; E. coli ATCC25922, 1 mM MgCl2): 16 µM
MIC in the presence of Ca2+ ([11]; E. coli ATCC25922, 2.5 mM CaCl2): 16 µM
MIC in the presence of Fe3+ ([11]; E. coli ATCC25922, 4 mM FeCl3): 4 µM
MIC in the presence of K+ ([11]; E. coli ATCC25922, 4.5 mM KCl): 16 µM
MIC in the presence of Zn2+ ([11]; E. coli ATCC25922, 8 mM ZnCl3): 8 µM
MIC in the presence of Na+ ([11]; E. coli ATCC25922, 150 mM NaCl): 16 µM
MIC following heating at 100 °C [11, 18]: 16 µM
MIC after Papain [11, 19]: >128 µM
MIC after Pepsin [11, 20]: >128 µM
MIC after Protease K [11, 21]: >128 µM
MIC after Trypsin ([11]; E. coli ATCC25922, 1 h, 37 °C): >128 µM
MIC, Control (enzymatic stability) [11, 22]: 16 µM
MIC, Control (thermal stability) [11, 22]: 16 µM
MIC, Control (salt stability) ([11]; E. coli ATCC25922, untreated peptides, no added salt): 16 µM

KKRRWQWRRKK-NH2 [KK-KK]
MIC ([1]; ATCC25922, 18 h): 32 µM
MIC ([2]; UB 1005, 18 h): 32 µM
MIC [3, 12]: >128 µM
MIC [4, 13]: >128 µM
MIC [5, 14]: 128 µM
MIC [6]: 128 µM
MIC [7, 15]: >128 µM
MIC [8, 16]: 128 µM
MIC [9, 17]: >128 µM
MIC in the presence of Ca2+ ([11]; ATCC25922, 18 h): 16 µM
MIC in the presence of Fe3+ ([11]; ATCC25922, 18 h): 8 µM
MIC in the presence of K+ ([11]; ATCC25922, 18 h): 16 µM
MIC in the presence of Mg2+ ([11]; ATCC25922, 18 h): 64 µM
MIC in the presence of NH4+ ([11]; ATCC25922, 18 h): 8 µM
MIC in the presence of Na+ ([11]; ATCC25922, 18 h): 16 µM
MIC in the presence of Zn2+ ([11]; ATCC25922, 18 h): 8 µM
MIC, Control (enzymatic stability) ([11]; ATCC25922, 18 h): 32 µM
MIC, Control (salt stability) ([11]; ATCC25922, 18 h): 32 µM
MIC, Control (thermal stability) ([11]; ATCC25922, 18 h): 32 µM
MIC following heating at 100 °C [11, 18]: >128 µM
MIC after Papain [11, 19]: >128 µM
MIC after Pepsin [11, 20]: >128 µM
MIC after Protease K [11, 21]: >128 µM
MIC after Trypsin ([11]; E. coli ATCC25922, 1 h, 37 °C): >128 µM

KWRRWQWRRWK-NH2 [KW-WK]
MIC ([1]; ATCC25922, 18 h): 4 µM
MIC ([2]; UB 1005, 18 h): 8 µM
MIC ([3]; murium C 7731, 18 h): 16 µM
MIC ([4]; ATCC 14028, 18 h): 32 µM
MIC [5]: 16 µM
MIC [6]: 128 µM
MIC ([7]; ATCC 29213, 18 h): 8 µM
MIC ([8]; ATCC 25923, 18 h): 32 µM
MIC ([9]; ATCC 12228, 18 h): 8 µM
MIC after Papain ([11]; ATCC25922, 1 h): 8 µM
MIC after Pepsin ([11]; ATCC25922, 1 h): 16 µM
MIC after Protease K ([11]; ATCC25922, 1 h): 8 µM
MIC following heating at 100 °C ([11]; ATCC25922, 1 h): 4 µM
MIC in the presence of Ca2+ ([11]; ATCC25922, 18 h): 8 µM
MIC in the presence of Fe3+ ([11]; ATCC25922, 18 h): 4 µM
MIC in the presence of K+ ([11]; ATCC25922, 18 h): 4 µM
MIC in the presence of Mg2+ ([11]; ATCC25922, 18 h): 8 µM
MIC in the presence of NH4+ ([11]; ATCC25922, 18 h): 8 µM
MIC in the presence of Na+ ([11]; ATCC25922, 18 h): 8 µM
MIC in the presence of Zn2+ ([11]; ATCC25922, 18 h): 8 µM
MIC, Control (enzymatic stability) ([11]; ATCC25922, 18 h): 4 µM
MIC, Control (salt stability) ([11]; ATCC25922, 18 h): 4 µM
MIC, Control (thermal stability) ([11]; ATCC25922, 18 h): 4 µM
MIC after Trypsin ([11]; E. coli ATCC25922, 1 h, 37 °C): >128 µM
